Here are results for 44 compounds from patent publication US6953789B2, “Thiol compounds, their production and use” (Takeda Chemical Industries, Ltd., priority 1998, dated 2005).

Bounds are passed on as bounds.

One experiment deals with T1, recombinant human MMP-13 (Homo sapiens, UniProt P45452).
T1 construct: made in house; host or cells: baculovirus (pBlueBac4 / Bac-N-Blue; virus made in Sf9), expressed in High-Five insect cells; culture supernatant used
Description: Assay of MMP-13 inhibiting activity (fluorogenic peptide substrate). It counts as biochemical. Conditions: Table 9; 37° C., 2 hours. In outline:
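Baculovirus-expressed human MMP-13 (High-Five cell supernatant) in pH 7.5 Tris buffer with 200 mM NaCl, 20 mM CaCl2, 0.1% Brij 35, 1 mM 2-mercaptoethanol; reaction started with 40 μM (stock) MOCAc-PLGL-A2pr(DNP)-AR-NH2, 2 h at 37 °C, stopped at pH 3.0. Fluorescence 330/405 nm; IC50 versus no-compound control.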
In general, IC50 refers to the concentration needed to halve the response being measured. In the case of `O=C1CC(S)CN1Cc1ccc(Oc2ccccc2F)cc1` (centres unmarked) [Example 113, 4-Mercapto-1-[4-(2′-fluorophenoxy)benzyl]pyrrolidin-2-one], the half-maximal inhibitory concentration (IC50) was 4 nM.

Take `CC(=O)SC1CC(=O)N(Cc2ccc(Oc3cccc(F)c3)cc2)C1` (centres unmarked) [Example 114, 4-Acetylthio-1-[4-(3′-fluorophenoxy)benzyl]pyrrolidin-2-one]: the IC50 worked out at 10 nM. Take `O=C1CC(S)CN1Cc1ccc(Oc2cccc(F)c2)cc1` (centres unmarked) [Example 115, 4-Mercapto-1-[4-(3′-fluorophenoxy)benzyl]pyrrolidin-2-one]: the IC50 came out at 4 nM. For `CC(=O)S[C@H]1CC(=O)N(Cc2ccc(Oc3ccc(F)cc3)cc2)C1` [Example 116, (S)-4-Acethylthio-1-[4-(4′-fluorophenoxy)benzyl)pyrrolidin-2-one], the IC50 came out at 7000 nM. Still for that read-out and setting: with `CC(=O)S[C@@H]1CC(=O)N(Cc2ccc(Oc3ccc(F)cc3)cc2)C1` [Example 117, (R)-4-Acethylthio-1-[4-(4′-fluorophenoxy)benzyl]pyrrolidin-2-one] the figure was 7 nM. For the compound `O=C1C[C@@H](S)CN1Cc1ccc(Oc2ccc(F)cc2)cc1` [Example 118, (R)-4-Mercapto-1-[4-(4′-fluorophenoxy)benzyl]pyrrolidin-2-one], the half-maximal inhibitory concentration (IC50) was found to be 2 nM.

Regarding `CC(=O)SC1CC(=O)N(Cc2ccc(Oc3ccc(F)cc3F)cc2)C1` (centres unmarked) [Example 119, 4-Acetylthio-1-[4-(2′,4′-difluorophenoxy)benzyl]pyrrolidin-2-one], the half-maximal inhibitory concentration (IC50) was 10 nM. In the case of `O=C1CC(S)CN1Cc1ccc(Oc2ccc(F)cc2F)cc1` (centres unmarked) [Example 120, 4-Mercapto-1-[4-(2′,4′-difluorophenoxy)benzyl]pyrrolidin-2-one], the half-maximal inhibitory concentration (IC50) came out at 7 nM. On to `CC(=O)SC1CC(=O)N(Cc2ccc(Oc3ccc(F)c(F)c3)cc2)C1` (centres unmarked) [Example 121, 4-Acetylthio-1-[4-(3′,4′-difluorophenoxy)benzyl]pyrrolidin-2-one], for which the IC50 is 20 nM.

Consider `O=C1CC(S)CN1Cc1ccc(Oc2ccc(F)c(F)c2)cc1` (centres unmarked) [Example 122, 4-Mercapto-1-[4-(3′,4′-difluorophenoxy)benzyl]pyrrolidin-2-one], for which the IC50 was 20 nM. With `CC(=O)S[C@@H]1CC(=O)N(Cc2ccc(Oc3ccc(C)cc3)cc2)C1` [Example 123, (R)-4-Acethylthio-1-[4-(4′-methylphenoxy)benzyl]pyrrolidin-2-one], the IC50 was 8.9 nM. Regarding `CCc1ccc(Oc2ccc(CN3C[C@H](SC(C)=O)CC3=O)cc2)cc1` [Example 124, (R)-4-Acethylthio-1-[4-(4′-ethylphenoxy)benzyl]pyrrolidin-2-one], the IC50 came out at 7 nM. For `CC(=O)S[C@@H]1CC(=O)N(Cc2ccc(Oc3ccc(C)cc3)cc2)C1` [Example 127, (R)-4-Acetylthio-1-[4-(4′-methylphenoxy)benzyl]pyrrolidin-2-one], the 50% inhibitory concentration (IC50) worked out at 10 nM. On to `Cc1ccc(Oc2ccc(CN3CC(S)CC3=O)cc2)cc1` (centres unmarked) [Example 128, 4-Mercapto-1-[4-(4′-methylphenoxy)benzyl]pyrrolidin-2-one], for which the IC50 came to 7 nM. On to `CC(=O)SC1CC(=O)N(Cc2ccc(Oc3ccc(C(F)(F)F)cc3)cc2)C1` (centres unmarked) [Example 129, 4-Acetylthio-1-[4-(4′-(trifluoromethyl)phenoxy)benzyl]pyrrolidin-2-one], for which the concentration for half-maximal inhibition (IC50) stood at 30 nM. As to `O=C1CC(S)CN1Cc1ccc(Oc2ccc(C(F)(F)F)cc2)cc1` (centres unmarked) [Example 130, 4-Mercapto-1-{4-[4′-(trifluoromethyl)phenoxy]benzyl}pyrrolidin-2-one], the 50% inhibitory concentration (IC50) came to 10 nM. Still for that read-out and setting: with `CCOC(=O)c1ccc(Oc2ccc(CN3CC(SC(C)=O)CC3=O)cc2)cc1` (centres unmarked) [Example 131, 4-Acetylthio-1-[4-(4′ethoxycarbonylphenoxy)benzyl]pyrrolidin-2-one] the figure was 20 nM; with `CCOC(=O)c1ccc(Oc2ccc(CN3CC(S)CC3=O)cc2)cc1` (centres unmarked) [Example 132, 4-Mercapto-1-[4-(4′-ethoxycarbonylphenoxy)benzyl]pyrrolidin-2-one], 3.3 nM; with `CC(=O)SC1CC(=O)N(Cc2ccc(Oc3ccc(C(=O)O)cc3)cc2)C1` (centres unmarked) [Example 133, 4-Acetylthio-1-[4-(4′-carboxyphenoxy)benzyl]pyrrolidin-2-one], > 10000 nM. On the same count and under the same terms, the figure for `CC(=O)SC1CC(=O)N(Cc2ccc(Oc3ccc(C(N)=O)cc3)cc2)C1` (centres unmarked) [Example 134, 4-Acetylthio-1-[4-(4′-aminocarbonylphenoxy)benzyl]pyrrolidin-2-one] is 29 nM.

Regarding `NC(=O)c1ccc(Oc2ccc(CN3CC(S)CC3=O)cc2)cc1` (centres unmarked) [Example 135, 4-Mercapto-1-[4-(4′-aminocarbonylphenoxy)benzyl]pyrrolidin-2-one], the concentration for half-maximal inhibition (IC50) is 9.2 nM. `CC(=O)SC1CC(=O)N(Cc2ccc(Oc3ccc(O)cc3)cc2)C1` (centres unmarked) [Example 136, 4-Acetylthio-1-[4-(4′-hydroxyphenoxy)benzyl]pyrrolidin-2-one]: the IC50 turned out to be 9 nM.

For `O=C1CC(S)CN1Cc1ccc(Oc2ccc(O)cc2)cc1` (centres unmarked) [Example 137, 4-Mercapto-1-[4-(4′-hydroxyphenoxy)benzyl]pyrrolidin-2-one], the IC50 was determined as 3 nM. Turning to `CCOc1ccc(Oc2ccc(CN3CC(SC(C)=O)CC3=O)cc2)cc1` (centres unmarked) [Example 138, 4-Acetylthio-1-[4-(4′-ethoxyphenoxy)benzyl]pyrrolidin-2-one], the IC50 turned out to be 20 nM. The same measure, in the same setting: with `CCOc1ccc(Oc2ccc(CN3CC(S)CC3=O)cc2)cc1` (centres unmarked) [Example 139, 4-Mercapto-1-[4-(4′-ethoxyphenoxy)benzyl]pyrrolidin-2-one] the figure was 6 nM; with `CC(=O)SC1CC(=O)N(Cc2ccc(Oc3ccc(OC(F)(F)F)cc3)cc2)C1` (centres unmarked) [Example 140, 4-Acetylthio-1-{4-[4′-(trifluoromethoxy)phenoxy]benzyl}pyrrolidin-2-one], 20 nM; with `O=C1CC(S)CN1Cc1ccc(Oc2ccc(OC(F)(F)F)cc2)cc1` (centres unmarked) [Example 141, 4-Mercapto-1-{4-[4′-(trifluoromethoxy)phenoxy]benzyl}pyrrolidin-2-one], 10 nM.

Take `CC(=O)SC1CC(=O)N(Cc2ccc(Oc3ccc([N+](=O)[O-])cc3)cc2)C1` (centres unmarked) [Example 142, 4-Acetylthio-1-[4-(4′-nitrophenoxy)benzyl]pyrrolidin-2-one]: the IC50 came to 53 nM.

On to `O=C1CC(S)CN1Cc1ccc(Oc2ccc([N+](=O)[O-])cc2)cc1` (centres unmarked) [Example 143, 4-Mercapto-1-[4-(4′-nitrophenoxy)benzyl]pyrrolidin-2-one], for which the IC50 came out at 11 nM.

Turning to `CC(=O)Nc1ccc(Oc2ccc(CN3CC(SC(C)=O)CC3=O)cc2)cc1` (centres unmarked) [Example 144, 4-Acetylthio-1-[4-(4′-acetoaminophenoxy)benzyl]pyrrolidin-2-one], the IC50 was found to be 2.7 nM. Same read-out and setting: with `CC(=O)Nc1ccc(Oc2ccc(CN3CC(S)CC3=O)cc2)cc1` (centres unmarked) [Example 145, 4-Mercapto-1-[4-(4′-acetoaminophenoxy)benzyl]pyrrolidin-2-one] the figure was 1.3 nM; with `CC(=O)SC1CC(=O)N(Cc2ccc(Oc3ccc(NS(C)(=O)=O)cc3)cc2)C1` (centres unmarked) [Example 146, 4-Acetylthio-1-[4-(4′-methylsulfonylaminophenoxy)benzyl]pyrrolidin-2-one], 25 nM. On to `CS(=O)(=O)Nc1ccc(Oc2ccc(CN3CC(S)CC3=O)cc2)cc1` (centres unmarked) [Example 147, 4-Mercapto-1-[4-(4′-methylsulfonylaminophenoxy)benzyl]pyrrolidin-2-one], for which the IC50 worked out at 1.2 nM.

Turning to `CCNC(=O)Nc1ccc(Oc2ccc(CN3CC(SC(C)=O)CC3=O)cc2)cc1` (centres unmarked) [Example 148, 4-Acetylthio-1-[4-(4′-ethylaminocarbonylaminophenoxy)benzyl]pyrrolidin-2-one], the 50% inhibitory concentration (IC50) turned out to be 25 nM.

Consider `CCNC(=O)Nc1ccc(Oc2ccc(CN3CC(S)CC3=O)cc2)cc1` (centres unmarked) [Example 149, 4-Mercapto-1-[4-(4′-ethylaminocarbonylaminophenoxy)benzyl]pyrrolidin-2-one], for which the 50% inhibitory concentration (IC50) worked out at 3.5 nM.

Take `CC(=O)SC1CC(=O)N(Cc2ccc(Oc3ccccc3)cc2[N+](=O)[O-])C1` (centres unmarked) [Example 150, 4-Acetylthio-1-(2-nitro-4-phenoxybenzyl)pyrrolidin-2-one]: the 50% inhibitory concentration (IC50) was 5500 nM. Take `CC(=O)SC1CC(=O)N(Cc2ccc(Oc3ccccc3)c([N+](=O)[O-])c2)C1` (centres unmarked) [Example 151, 4-Acetylthio-1-(3-nitro-4-phenoxybenzyl)pyrrolidin-2-one]: the IC50 was > 10000 nM. On the same count and under the same terms, the figure for `CC(=O)SC1CC(=O)N(Cc2ccc(Oc3ccccc3)c(NS(C)(=O)=O)c2)C1` (centres unmarked) [Example 152, 4-Acetylthio-1-(3-methylsulfonylamino-4-phenoxybenzyl)pyrrolidin-2-one] is > 10000 nM. Consider `CS(=O)(=O)Nc1cc(CN2CC(S)CC2=O)ccc1Oc1ccccc1` (centres unmarked) [Example 153, 4-Mercapto-1-(3-methylsulfonylamino-4-phenoxybenzyl)pyrrolidin-2-one], for which the half-inhibitory concentration (IC50) is 4000 nM.

Still in this experiment, the particulars now being: Table 10; 37° C., 2 hours.
`CC(=O)SC1CC(=O)N(Cc2ccc(Sc3ccccc3)cc2)C1` (centres unmarked) [Example 154, 4-Acetylthio-1-(4-phenylthiobenzyl)pyrrolidin-2-one]: the concentration for half-maximal inhibition (IC50) was found to be 20 nM. Turning to `O=C1CC(S)CN1Cc1ccc(Sc2ccccc2)cc1` (centres unmarked) [Example 155, 4-Mercapto-1-(4-phenylthiobenzyl)pyrrolidin-2-one], the half-maximal inhibitory concentration (IC50) was 7 nM.

The same experiment, now with this note: Table 12; 37° C., 2 hours.
For the compound `CC(=O)SC1CCC(=O)N(Cc2ccc(Oc3ccccc3)cc2)C1` (stereo not drawn) [Example 108, S-[6-Oxo-1-(4-phenoxybenzyl)-3-piperidinyl]ethanethioate], the 50% inhibitory concentration (IC50) amounted to 300 nM. With `O=C1CCC(S)CN1Cc1ccc(Oc2ccccc2)cc1` (centres unmarked) [Example 109, 1-(4-Phenoxybenzyl)-5-sulfanyl-2-piperidinone], the IC50 was found to be 60 nM. On the same count and under the same terms, with `O=C1CC(S)CCN1Cc1ccc(Oc2ccccc2)cc1` (centres unmarked) [Example 111, 1-(4-Phenoxybenzyl)-4-sulfanyl-2-piperidinone] the figure was 17 nM.
